Like-named read-outs stand apart in the source and are kept apart here.
Tests used:
[1] = system: migraine model in anesthetized dogs; experiment: Pharmacodynamic study, capsaicin-induced carotid vasodilation migraine model; format: in vivo, Beagle Dogs; conditions: regardless of the route of administration
[2] = rat, in vivo
in vivo = conditions: female, Sprague Dawley, rat, iv

CNS(=O)(=O)Cc1ccc2[nH]cc(CCN(C)C)c2c1 [Sumatriptan, sumatriptan]
Blood pressure and heart rate [1]: unaltered
tolerability [2]: well tolerated
AUC ([2]; iv): 273,729 (min,ng/mL)mg
Cmax ([2]; iv): 26,719 ng/mL/mg
AUC ([2]; sc): 99,583 (min,ng/mL)mg
Cmax ([2]; sc): 2309 ng/mL/mg
half-life (in vivo): 5.07 h

Reference: EP3536368B1, “DRY POWDER INHALER COMPRISING A SEROTONIN RECEPTOR AGONIST AND A DIKETOPIPERAZINE FOR TREATING MIGRAINES” (MannKind Corporation, priority 2010, dated 2012)
